Data published in patent US10757944B2, “Ozone treatment for elimination of pathogens” (priority 2016, dated 2020).
Values joined by “and” are separate entries in the source; they are usually repeats but may differ in a detail not shown here. Equal entries are not always repeated.

Assays:
Assay type in all cases: cell-based
Escherichia Coli = test: Gaseous ozone treatment of Cannabis inoculated with E. Coli, microbial count
Method: (§1) Cannabis plants were individually contaminated with Escherichia Coli, Salmonella enterica sv typhimurium, Listeria monocytogenes and Candida albicans then exposed to gaseous ozone for 20 minutes at 100 ppm and 200 ppm.
Pure cultures of Escherichia coli and Listeria monocytogenes provided by the American Type Culture Collection (ATCC) were grown in selective media broths. The Candida albicans provided by ATCC was grown on potato dextrose agar, and after significant growth was achieved, the colonies were transferred and suspended in Butterfield's buffer. After significant turbidity in each broth of pathogens was observed, they, along with Butterfield's buffer with the suspended Candida albicans, were used to inoculate individual Cannabis samples. […]
Three samples for each organism were tested at each of the concentrations. […] All samples were then analyzed for their microbial counts by first generating serial dilution using Butterfield's buffer as the diluent for each sample then individually plating the resultant dilutions onto selective media appropriate for the organism being analyzed. After the required incubation temperatures and times were completed, the organisms on the plates were counted. For each set of dilutions of a given sample and starting at the plate representing the lowest dilution ratio, the first plate that was countable was counted and the result was recorded. […]

[1] = system: Salmonella enterica sv typhimurium; test: Gaseous ozone treatment of Cannabis inoculated with Salmonella, microbial count; conditions: for kill of bacterial pathogen (in words): 20 minutes; for Microbial Count: 20 min
Method: as §1
(§2) Pure cultures of Escherichia coli and Listeria monocytogenes provided by the American Type Culture Collection (ATCC) were grown in selective media broths. The Candida albicans provided by ATCC was grown on potato dextrose agar, and after significant growth was achieved, the colonies were transferred and suspended in Butterfield's buffer. After significant turbidity in each broth of pathogens was observed, they, along with Butterfield's buffer with the suspended Candida albicans, were used to inoculate individual Cannabis samples. This process created four individual populations of Cannabis with each population being contaminated with one of the four organisms grown. After inoculating the samples they were allowed to dry overnight by placing them out in the open at room temperature. Each population of Cannabis was then divided into smaller individual 2-4 gram samples which were used in the tests. One test consisted of placing nearly half of the smaller samples into an ozone gas chamber for 20 minutes at an approximate ozone concentration of 100 ppm. The remaining samples were set aside to be used as controls.
(§3) Three samples for each organism were tested at each of the concentrations. The control samples were placed into the same chamber for 20 minutes with an ozone concentration of 0 ppm. All samples were then analyzed for their microbial counts by first generating serial dilution using Butterfield's buffer as the diluent for each sample then individually plating the resultant dilutions onto selective media appropriate for the organism being analyzed. After the required incubation temperatures and times were completed, the organisms on the plates were counted. For each set of dilutions of a given sample and starting at the plate representing the lowest dilution ratio, the first plate that was countable was counted and the result was recorded.
(§4) Testing occurred over two days. The first day involved testing one sample of Cannabis for each organism at an ozone concentration of 100 ppm and another test of only Listeria at 50 ppm. Additional testing involving subsequent trials for each organism at ozone concentrations of 100 ppm and 200 ppm were conducted on the second day of testing.
The ozone concentration in the ozone chamber was kept at a range approximating the desired 100 ppm and 200 ppm concentrations. For instance, when the desired concentration was 100 ppm, the actual range of concentrations was 98 ppm to 106 ppm, and when the desired concentration was 200 ppm, the actual range of concentration was 198 ppm to 204 ppm. […]

Listeria monocytogenes = test: Gaseous ozone treatment of Cannabis inoculated with Listeria, microbial count; conditions: for kill of bacterial pathogen (in words): 20 minutes
Method: as §1, §2, §3, §4
The ozone concentration in the ozone chamber was kept at a range approximating the desired 100 ppm and 200 ppm concentrations. For instance, when the desired concentration was 100 ppm, the actual range of concentrations was 98 ppm to 106 ppm, and when the desired concentration was 200 ppm, the actual range of concentration was 198 ppm to 204 ppm. While the samples were being placed into the chamber ozone gas was lost.

[2] = system: Escherichia Coli, Salmonella enterica sv typhimurium, Listeria monocytogenes and Candida albicans; test: Gaseous ozone treatment of inoculated Cannabis, summary statements for all organisms
Method: as §1, §2
as §3, with “recorded. […]” for “recorded.”

total yeast and mold = test: Total yeast and mold on homogenized cannabis flower after ozone exposure (3M Petrifilm Rapid Yeast and Mold Count Plate); conditions: for Average CFU/g (all samples tested) of yeast and mold remaining: 0 minutes: 68,000
Method: The ability of ozone to reduce fungus using an embodiment of a disclosed pathogen reduction device was also evaluated. In this series of experiments, homogenized cannabis flower with a total yeast and mold bio-burden exceeding 10,000 CFU/g was exposed to ozone using an embodiment of a disclosed pathogen reduction device. 20 gram samples of the cannabis flower were separated into two groups (10 grams a group) and placed on different racks within the pathogen reduction device. One 10 gram sample was placed on an industrial grade aluminum rack with air holes in order to maximize ozone flow and increase the surface area of the flower that would be exposed to ozone. A second 10 gram sample was place directly onto a rack screen (aluminum foil with holes pocked into it); however, because some of the homogenized cannabis flower was finer than the rack screen, some flower from the second 10 gram sample passed through the rack screen and landed on the lowest mesh screen in the device, thereby, creating a third sample for testing.
20 gram samples as described above were exposed to ozone for 0 minutes (control), 20 minutes, 30 minutes, 45 minutes, and 60 minutes at an ozone concentration of 200 ppm. Six 1 gram samples from each treatment time were processed and evaluated using a 3M® Petrifilm® Rapid Yeast and Mold Count Plate and accompanying Product Instructions. The ozone treated samples were homogenized, diluted with buffer (distilled water), and then 1 milliliter suspension samples were dispensed onto 3M® Petrifilm® Rapid Yeast and Mold Count Plates. The plates were incubated at 27° C. for greater than 60 hours in order to quantify the total yeast and mold remaining on the cannabis flower following exposure to ozone. Three of the six 1 gram samples were taken from the flower placed on the industrial grade aluminum rack as detailed above. Two of the 1 gram samples were taken from the flower placed directly on the screen. The final 1 gram sample was collected from the lowest mesh screen in the device where the finest flower collected after falling through the rack screen.

mold and yeast = test: Additional ozone exposure tests on cannabis flower or trim, mold and yeast CFU; conditions: ozone 200 ppm
Method: Some additional ozone exposure tests were performed with cannabis flower or trim on a variety of commercially available strains using an embodiment of a disclosed pathogen reduction device. In each experiment (disclosed in Table 6) a reduction of mold and yeast CFU/g was measured (as disclosed above using 3M® Petrifilm® Rapid Yeast and Mold Count Plate and Product Instruction) after treating different weights of cannabis with an ozone concentration of 200 ppm for between 20 and 60 minutes.

CFUs on cannabis flower = test: Exposure of cannabis flower to 200 ppm ozone, CFU reduction; conditions: between about 20 minutes and 90 minutes
[3] = 100 ppm ozone, compared with 200 ppm

Structure (SMILES): O=[O+][O-] [ozone]
- kill of Escherichia coli (in words) (Escherichia Coli; both 100 ppm and 200 ppm ozone, 20 minutes): significantly vulnerable
- Microbial Count (Escherichia Coli; first day, target ozone 100 ppm (actual 95-102 ppm), 20 min, control (0 ppm) 1.2 * 10^11): 2.8 * 10^10 cfu/g
- kill of bacterial pathogen (in words) [1, 3]: lesser kill rate
- kill of bacterial pathogen (in words) ([1]; 200 ppm ozone): Significant kills
- Microbial Count ([1]; first day, target ozone 100 ppm (actual 95-102 ppm), control (0 ppm) 1.1 * 10^11): 1.7 * 10^10 cfu/g
- Microbial Count ([1]; second day, ozone 100 ppm (98-106 ppm), Trials 2-3, control 4.5 * 10^4): 1.1 * 10^4 cfu/g and 1.3 * 10^4 cfu/g
- difference between the control and the treated sample (in words) (Listeria monocytogenes; 50 ppm ozone, 20 min, first day): no statistically significant difference
- kill of bacterial pathogen (in words) (Listeria monocytogenes; [3]): lesser kill rate
- kill of bacterial pathogen (in words) (Listeria monocytogenes; 200 ppm ozone): Significant kills
- Microbial Count (Listeria monocytogenes; first day, target ozone 50 ppm (actual 46-52 ppm), 20 min, control (0 ppm) 7.0 * 10^2): 2.6 * 10^2 cfu/g
- Microbial Count (Listeria monocytogenes; first day, target ozone 100 ppm (actual 95-102 ppm), 20 min, control (0 ppm) 1.9 * 10^7): 4.8 * 10^5 cfu/g
- Microbial Count (Listeria monocytogenes; second day, ozone 100 ppm (98-106 ppm), 20 min, Trials 2-3, control 2.0 * 10^4): 2.0 * 10^3 cfu/g and 1.0 * 10^3 cfu/g
- kill of all of the organisms involved in the test (in words) ([2]; 100 ppm ozone, first day (Table 1)): significant kill
- kill of all organisms compared to the controls (in words) ([2]; 100 ppm ozone, second day (Table 2)): significant kill
- kills at 200 ppm compared to the kills at 100 ppm (in words) ([2]; 200 ppm ozone, second day (Table 2)): amount of kills increased
- decrease in total yeast and mold bio-burden (total yeast and mold; 200 ppm ozone for 60 minutes): 92%
- average Colony Forming Units/gram after treatment (total yeast and mold; 200 ppm ozone for 60 minutes, dropping from an average of 82,000 CFU/g): 7,000 CFR/g
- Average CFU/g (all samples tested) of yeast and mold remaining (total yeast and mold; 200 ppm ozone, 20 minutes): 18,000 CFU/g
- CFU/g (Test 1) (total yeast and mold; 200 ppm ozone, 20 minutes, Industrial grade aluminum rack (samples 4-6), T0: 25,000, 60,000, 82,000): 19,000 CFU/g and 12,000 CFU/g and 21,000 CFU/g
- CFU/g (Test 2) (total yeast and mold; 200 ppm ozone, 20 minutes, Industrial grade aluminum rack (samples 4-6), T0: 53,000, 140,000, 130,000): 23,000 CFU/g and 18,000 CFU/g and 21,000 CFU/g
- CFU/g (Test 2) (total yeast and mold; 200 ppm ozone, 20 minutes, Lowest mesh screen (sample 1), T0: 61,000): 24,000 CFU/g
- CFU/g (Test 1) (total yeast and mold; 200 ppm ozone, 20 minutes, Lowest mesh screen (sample 1), T0: 77,000): 18,000 CFU/g
- CFU/g (Test 2) (total yeast and mold; 200 ppm ozone, 20 minutes, Rack screen (samples 2-3), T0: 28,000, 77,000): 16,000 CFU/g and 17,000 CFU/g
- CFU/g (Test 1) (total yeast and mold; 200 ppm ozone, 20 minutes, Rack screen (samples 2-3), T0: 30,000, 50,000): 15,000 CFU/g
- Average CFU/g (all samples tested) of yeast and mold remaining (total yeast and mold; 200 ppm ozone, 30 minutes): 17,000 CFU/g
- CFU/g (Test 1) (total yeast and mold; 200 ppm ozone, 30 minutes, Industrial grade aluminum rack (samples 4-6), T0: 25,000, 60,000, 82,000): 16,000 CFU/g and 11,000 CFU/g and 20,000 CFU/g
- CFU/g (Test 2) (total yeast and mold; 200 ppm ozone, 30 minutes, Industrial grade aluminum rack (samples 4-6), T0: 53,000, 140,000, 130,000): 15,000 CFU/g and 14,000 CFU/g and 20,000 CFU/g
- CFU/g (Test 2) (total yeast and mold; 200 ppm ozone, 30 minutes, Lowest mesh screen (sample 1), T0: 61,000): 20,000 CFU/g
- CFU/g (Test 1) (total yeast and mold; 200 ppm ozone, 30 minutes, Lowest mesh screen (sample 1), T0: 77,000): 16,000 CFU/g
- CFU/g (Test 2) (total yeast and mold; 200 ppm ozone, 30 minutes, Rack screen (samples 2-3), T0: 28,000, 77,000): 30,000 CFU/g and 16,000 CFU/g
- CFU/g (Test 1) (total yeast and mold; 200 ppm ozone, 30 minutes, Rack screen (samples 2-3), T0: 30,000, 50,000): 18,000 CFU/g and 13,000 CFU/g
- Average CFU/g (all samples tested) of yeast and mold remaining (total yeast and mold; 200 ppm ozone, 45 minutes): 16,000 CFU/g
- CFU/g (Test 2) (total yeast and mold; 200 ppm ozone, 45 minutes, Lowest mesh screen (sample 1), T0: 61,000): 11,000 CFU/g
- CFU/g (Test 1) (total yeast and mold; 200 ppm ozone, 45 minutes, Lowest mesh screen (sample 1), T0: 77,000): 7,100 CFU/g
- CFU/g (Test 2) (total yeast and mold; 200 ppm ozone, 45 minutes, Rack screen (samples 2-3), T0: 28,000, 77,000): 15,000 CFU/g and 12,000 CFU/g
- CFU/g (Test 1) (total yeast and mold; 200 ppm ozone, 45 minutes, Rack screen (samples 2-3), T0: 30,000, 50,000): 13,000 CFU/g and 11,000 CFU/g
- Average CFU/g (all samples tested) of yeast and mold remaining (total yeast and mold; 200 ppm ozone, 60 minutes): 6,000 CFU/g
- CFU/g (Test 2) (total yeast and mold; 200 ppm ozone, 60 minutes, Lowest mesh screen (sample 1), T0: 61,000): 9,000 CFU/g
- CFU/g (Test 1) (total yeast and mold; 200 ppm ozone, 60 minutes, Lowest mesh screen (sample 1), T0: 77,000): 7,400 CFU/g
- CFU/g (Test 2) (total yeast and mold; 200 ppm ozone, 60 minutes, Rack screen (samples 2-3), T0: 28,000, 77,000): 10,000 CFU/g and 6,300 CFU/g
- CFU/g (Test 1) (total yeast and mold; 200 ppm ozone, 60 minutes, Rack screen (samples 2-3), T0: 30,000, 50,000): 6,000 CFU/g and 7,800 CFU/g
- additional reduction in CFU/g (total yeast and mold; 200 ppm ozone, after the first 20 minutes and up until 45 minutes): 1.1%
- another reduction in CFU/g (total yeast and mold; 200 ppm ozone, between a 45 minute and 60 minute exposure): 14.1%
- yeast and mold across all 6 samples following treatment (total yeast and mold; 200 ppm ozone, from roughly 10^5 CFU/g): below 10,000 CFU/g
- inhibition of fungi by ozone exposure (in words) (total yeast and mold; Table 4, 200 ppm ozone, 20-60 minutes): strongly inhibited
- Ending CFU (mold and yeast; Flower, Hybrid, 5 lbs, 60:00 min, Initial CFU 77,000): 4500 CFU
- Ending CFU (mold and yeast; Flower, Hybrid/Indica, 1 lb, 45:00 min, Initial CFU 2,200): 220 CFU
- Ending CFU (mold and yeast; Flower, Hybrid/Indica, 6 lbs, 25:00 min, Initial CFU 51,750): 30,000-32,000 CFU
- Ending CFU (mold and yeast; Flower, Hybrid/Indica, weight NA, 60:00 min, Initial CFU 110,000): 3,000 CFU
- Ending CFU (mold and yeast; Flower, Hybrid/Sativa, 1 lb, 20:00 min, Initial CFU 100,000): 5,400-5,500 CFU
- Ending CFU (mold and yeast; Flower, Indica, 3 lbs, 60:00 min, Initial CFU 320,000): 91,000 CFU
- Ending CFU (mold and yeast; Trim, Hybrid/Indica, 6 lbs, 25:00 min, Initial CFU 17,000): 800-11,000 CFU
- Ending CFU (mold and yeast; Trim, Hybrid/Sativa, 3 lbs, 60:00 min, Initial CFU 50,000): 3,000 CFU
- reduction of CFUs (CFUs on cannabis flower): 100,000 to 150,000 CFUs per hour
